Here are results for 9 molecules from patent US9255080B2, “Quinazolinedione derivatives as PARP inhibitors” (Janssen Pharmaceutica NV, priority 2004, dated 2016).

Assay [1] concerns the target T1, PARP-1 enzyme (Homo sapiens, UniProt P09874). Description: In vitro filtration assay for PARP-1 inhibitory activity. The format is biochemical. As to the method: In Vitro Filtration Assay for PARP-1 Inhibitory Activity
Compounds of the present invention were tested in an in vitro filtration assay assessing PARP-1 activity (triggered in the presence of nicked DNA) by means of its histone poly (ADP-ribosyl)ation activity using [^32P]-NAD as ADP-ribosyl donor. The radioactive ribosylated histones were precipitated by trichloroacetic acid (TCA) in 96-well filterplates and the incorporated [^32P] measured using a scintillation counter
A mixture of histones (stock solution: 5 mg/ml in H2O), NAD^+ (stock solution: 100 mM in H2O), and [^32P]-NAD^+ in incubation buffer (50 mM Tris/HCl, pH 8; 0.2 mM DTT; 4 mM MgCl2) was made. A mixture of the PARP-1 enzyme (5-10 μg/ml) and nicked DNA was also made. The nicked DNA was prepared as described in the in vitro SPA for PARP-1 inhibitory activity. Seventy-five μl of the PARP-1 enzyme/DNA mixture together with 1 μl of compound in DMSO and 25 μl of histones-NAD^+/[^32P]-NAD^+ mixture was added per well of a 96-well filterplate (0.45 μm, supplier Millipore). The final concentrations in the incubation mixture were 2 μg/ml for the histones, 0.1 mM for the NAD^+, […] (0.5 μC) for the [^32P]-NAD^+ and 2 μg/ml for the nicked DNA. Plates were incubated for 15 min. at room temperature and the reaction was terminated by the addition of 10 μl ice cold 100% TCA followed by the addition of 10 μl ice-cold BSA solution (1% in H2O). The protein fraction was allowed to precipitate for 10 min. at 4° C. and plates were vacuum filtered. The plates were subsequently washed with, for each well, 1 ml of 10% ice cold TCA, 1 ml of 5% ice cold TCA and 1 ml of 5% TCA at room temperature. Finally 100 μl of scintillation solution (Microscint 40, Packard) was added to each well and the plates were transferred to a TopCountNXT™ (supplier: Packard) for scintillation counting and values were expressed as counts per minute (cpm). For each experiment, controls (containing PARP-1 enzyme and DMSO without compound), a blank incubation (containing DMSO but no PARP-1 enzyme or compound) and samples (containing PARP-1 enzyme and compound dissolved in DMSO) were run in parallel. All compounds tested were dissolved and eventually further diluted in DMSO. In first instance, compounds were tested at a concentration of 10^−5M. […] In each test, the blank value was subtracted from both the control and the sample values. The control sample represented maximal PARP-1 enzyme activity. For each sample, the amount of cpm was expressed as a percentage of the mean cpm value of the controls. […] Herein the effects of test compounds are expressed as pIC50 (the negative log value of the IC50-value).

The target in assay [2] is T1, PARP-1 enzyme. Description: In vitro scintillation proximity assay (SPA) for PARP-1 inhibitory activity. The format is biochemical. Here is the method: In Vitro Scintillation Proximity Assay (SPA) for PARP-1 Inhibitory Activity
Compounds of the present invention were tested in an in vitro assay based on SPA technology (proprietary to Amersham Pharmacia Biotech).
In principle, the assay relies upon the well established SPA technology for the detection of poly(ADP-ribosyl)ation of biotinylated target proteins, i.e histones. This ribosylation is induced using nicked DNA activated PARP-1 enzyme and [^3H]-nicotinamide adenine dinucleotide ([^3H]-NAD^+) as ADP-ribosyl donor.
As inducer of PARP-1 enzyme activity, nicked DNA was prepared. For this, 25 mg of DNA (supplier: Sigma) was dissolved in 25 ml DNAse buffer (10 mM Tris-HCl, pH 7.4; 0.5 mg/ml Bovine Serum Albumine (BSA); 5 mM MgCl2.6H2O and 1 mM KCl) to which 50 μl DNAse solution (1 mg/ml in 0.15 M NaCl) was added. After an incubation of 90 min. at 37° C., the reaction was terminated by adding 1.45 g NaCl, followed by a further incubation at 58° C. for 15 min. The reaction mixture was cooled on ice and dialysed at 4° C. for respectively 1.5 and 2 hours against 1.5 l of 0.2 M KCl, and twice against 1.5 l of 0.01 M KCl for 1.5 and 2 h respectively. The mixture was aliquoted and stored at −20° C. Histones (1 mg/ml, type II-A, supplier: Sigma) were biotinylated using the biotinylation kit of Amersham and stored aliquoted at −20° C. A stock solution of 100 mg/ml SPA poly(vinyl toluene) (PVT) beads (supplier: Amersham) was made in PBS. A stock solution of [^3H]-NAD^+ was made by adding 120 μl of [^3H]-NAD^+ (0.1 mCi/ml, supplier: NEN) to 6 ml incubation buffer (50 mM Tris/HCl, pH 8; 0.2 mM DTT; 4 mM MgCl2). A solution of 4 mM NAD^+ (supplier: Roche) was made in incubation buffer (from a 100 mM stock solution in water stored at −20° C.). The PARP-1 enzyme was produced using art known techniques, i.e. cloning and expression of the protein starting from human liver cDNA. Information concerning the used protein sequence of the PARP-1 enzyme including literature references can be found in the Swiss-Prot database under primary accession number P09874. Biotinylated histones and PVT-SPA beads were mixed and pre-incubated for 30 min. at room temperature. PARP-1 enzyme (concentration was lot dependent) was mixed with the nicked DNA and the mixture was pre-incubated for 30 min. at 4° C. Equal parts of this histones/PVT-SPA beads solution and PARP-1 enzyme/DNA solution were mixed and 75 μl of this mixture together with 1 μl of compound in DMSO and 25 μl of [^3H]-NAD^+ was added per well into a 96-well microtiterplate. The final concentrations in the incubation mixture were 2 μg/ml for the biotinylated histones, 2 mg/ml for the PVT-SPA beads, 2 μg/ml for the nicked DNA and between 5-10 μg/ml for the PARP-1 enzyme. After incubation of the mixture for 15 min. at room temperature, the reaction was terminated by adding 100 μl of 4 mM NAD^+ in incubation buffer (final concentration 2 mM) and plates were mixed.
The beads were allowed to sediment for at least 15 min. and plates transferred to a TopCountNXT™ (Packard) for scintillation counting, values were expressed as counts per minute (cpm). For each experiment, controls (containing PARP-1 enzyme and DMSO without compound), a blank incubation (containing DMSO but no PARP-1 enzyme or compound) and samples (containing PARP-1 enzyme and compound dissolved in DMSO) were run in parallel. All compounds tested were dissolved and eventually further diluted in DMSO. In first instance, compounds were tested at a concentration of 10^−5M. […] In each test, the blank value was subtracted from both the control and the sample values. The control sample represented maximal PARP-1 enzyme activity. For each sample, the amount of cpm was expressed as a percentage of the mean cpm value of the controls. […] Herein the effects of test compounds are expressed as pIC50 (the negative log value of the IC50-value).
A general note: In a scintillation proximity assay essentially only radioactivity close to the scintillant gives light.

Setting [3] is: [32P]-NAD, histones, nicked DNA, read-out: in vitro filter assay PARP-1 pIC50 (converted).
Setting [4] is: [3H]-NAD+, biotinylated histones, nicked DNA, read-out: in vitro SPA assay PARP-1 pIC50 (converted).

T1 sequence (P09874 whole entry): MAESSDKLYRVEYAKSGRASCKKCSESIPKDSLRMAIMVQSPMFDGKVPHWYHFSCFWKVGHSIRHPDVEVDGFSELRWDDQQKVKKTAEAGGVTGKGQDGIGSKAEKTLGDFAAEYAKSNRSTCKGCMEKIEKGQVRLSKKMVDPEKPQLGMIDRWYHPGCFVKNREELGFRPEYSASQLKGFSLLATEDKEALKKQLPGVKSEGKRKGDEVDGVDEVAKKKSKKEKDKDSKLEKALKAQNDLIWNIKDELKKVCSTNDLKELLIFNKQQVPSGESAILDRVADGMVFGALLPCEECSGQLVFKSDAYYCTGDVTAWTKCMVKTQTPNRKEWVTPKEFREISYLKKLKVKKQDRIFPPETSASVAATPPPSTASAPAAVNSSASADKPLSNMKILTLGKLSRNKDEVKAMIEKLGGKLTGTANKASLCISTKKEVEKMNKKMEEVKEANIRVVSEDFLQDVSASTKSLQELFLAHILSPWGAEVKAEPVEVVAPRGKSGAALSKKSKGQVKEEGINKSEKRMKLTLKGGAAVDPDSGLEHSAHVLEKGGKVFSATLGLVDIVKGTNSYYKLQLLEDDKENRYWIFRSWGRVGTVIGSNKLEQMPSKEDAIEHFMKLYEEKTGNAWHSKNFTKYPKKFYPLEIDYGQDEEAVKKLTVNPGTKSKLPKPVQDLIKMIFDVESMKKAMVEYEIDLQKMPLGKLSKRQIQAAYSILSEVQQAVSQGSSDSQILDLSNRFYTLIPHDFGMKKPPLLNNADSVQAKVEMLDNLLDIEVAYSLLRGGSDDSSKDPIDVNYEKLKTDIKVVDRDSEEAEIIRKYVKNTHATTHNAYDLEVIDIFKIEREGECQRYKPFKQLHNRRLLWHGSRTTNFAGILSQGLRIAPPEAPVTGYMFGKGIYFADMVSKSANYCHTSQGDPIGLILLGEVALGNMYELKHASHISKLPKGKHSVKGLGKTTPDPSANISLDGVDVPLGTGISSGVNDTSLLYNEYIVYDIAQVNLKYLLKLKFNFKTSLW

Regarding `O=C(c1ccc(F)cc1)C1CCN(CCCn2c(=O)[nH]c(=O)c3ccccc32)CC1` [Compound 11, 1-[3-[4-(4-fluorobenzoyl)-1-piperidinyl]propyl]-2,4-(1H,3H)-quinazolinedione], the IC50 on PARP-1 enzyme [1] (setting [3]) is 2720 nM; at PARP-1 enzyme [2] (setting [4]) it was 221 nM.
As to `O=c1[nH]c(=O)n(C2CCNCC2)c2ccccc12` [Compound 1], the values for the IC50 on PARP-1 enzyme [1] (setting [3]) and on PARP-1 enzyme [2] (setting [4]) were 465 nM and 204 nM, respectively.
For `O=c1[nH]c(=O)n(CCN2CCC(O)(c3ccc(Cl)cc3)CC2)c2ccccc12` [Compound 6], in that order: 1330 nM and 167 nM.
The like results for `O=c1[nH]c(=O)n(C2CCN(CCCn3c(=O)[nH]c4ccccc43)CC2)c2ccccc12` [Compound 5] were, in that order, 1740 nM and 348 nM.
For `O=C(c1ccc(F)cc1)C1CCN(CCn2c(=O)[nH]c(=O)c3ccccc32)CC1` [Compound 10, 1-[2-[4-(4-fluorobenzoyl)-1-piperidinyl]ethyl]-2,4-(1H,3H)-quinazolinedione], in that order: 1800 nM and 220 nM.
On to `O=c1[nH]c(=O)n(C2CCN(CC(O)C3CCc4ccccc4O3)CC2)c2ccccc12` (stereo in doubt) [Compound 9, 1-[1-[(2S)-2-[(2R)-3,4-dihydro-2H-1-benzopyran-2-yl]-2-hydroxyethyl]-4-piperidinyl]-2,4(1H,3H)-quinazolinedione], for which the results for the IC50 at PARP-1 enzyme [1] (setting [3]) and on PARP-1 enzyme [2] (setting [4]) were 2180 nM and 359 nM, respectively.
As for `O=C(CCCN1CCC(n2c(=O)[nH]c(=O)c3ccccc32)CC1)c1ccc(F)cc1` [Compound 2], the IC50 at PARP-1 enzyme [1] (setting [3]) was 1570 nM; at PARP-1 enzyme [2] (setting [4]), 257 nM.
For the molecule `O=c1[nH]c(=O)n(CCCN2CCC(c3c[nH]c4ccccc34)CC2)c2ccccc12` [Compound 3], the IC50 against PARP-1 enzyme [1] was 1030 nM; against PARP-1 enzyme [2], 136 nM.
In the case of `O=c1[nH]c(=O)n(CCCN2CCC(O)(c3ccc(Cl)cc3)CC2)c2ccccc12` [Compound 7], the IC50 at PARP-1 enzyme [1] (setting [3]) is 3240 nM; on PARP-1 enzyme [2] (setting [4]), 292 nM.
